In patent US10548894B2, “Combination therapy” (Array BioPharma Inc., priority 2013, dated 2020):

Assays:
[1] = Clinical dose finding and tolerability (RP2D/MTD) in patients; assay type: in vivo
Text: The selection of the starting dose follows the ICH S9 guidelines for choosing a starting a dose for a first-in-human trial conducted in patients with cancer, and is shown in Table 6-2.
Table 3 describes the starting doses and the provisional dose levels of study treatments for the combinations that may be evaluated during this trial. Additional dose levels not currently specified may be enrolled and additional patients may be enrolled at a dose level already tested if such changes are deemed necessary to provide optimal safety and tolerability, pharmacokinetic, and pharmacodynamic data.

[2] = tested on: A-375 cells expressing truncated p61-BRAFV600E; assay: Microscopy imaging assay (viable nuclei count), 72 h; assay type: cell-based; settings: Homo sapiens, A-375 p61 BRafV600E, single agent
Protocol: (§1) Compound stocks are prepared in DMSO at a final concentration of 10 mM.
(§2) A-375 and WM-266-4 cells were purchased from American Type Culture Collection (ATCC). The A-375 cells were cultured in DMEM medium (ATCC) and the WM-266-4 cells were cultured in EMEM medium (ATCC) both supplemented with 10% fetal bovine serum (Gibco) and incubated at 37° C./5% CO2. The cell lines engineered to express commonly occurring alleles indicative of resistance were acquired from Novartis-Emeryville. These resistant models include, A-375 cells expressing mutant MEK1P124L, truncated p61-BRAFV600E, or mutant NRASQ61K, and WM-266-4 cells expressing mutant MEK1C121S, truncated p61-BRAFV600E, or mutant NRASQ61K. These cells were cultured in the appropriate parental medium with selection marker G418 and in the presence of 5 uM LFE158 (MEK mutants) or LIH720 (truncated p61-BRAFV600E).
(§3) For screening, cells were seeded in 80 ul of medium in 384-well plates (Thermo Scientific, cat#4332) at 500 (A-375) or 750 (WM-266-4) cell densities per well using a MultiDrop Combi (Thermo-Fisher) with an 8-channel standard cassette. To promote an even distribution of cells across the entire well, cells were briefly centrifuged at 1000 RPM and incubated at room temperature 30 minutes. All plates were incubated at 37° C., 5% CO2 for 24 h prior to compound addition. Compound stock was freshly prepared in the appropriate culture medium, and added using a PAA robot equipped with a 200n1 pin tool. In a minimum of three replicate wells, single agent and combination effects after 72 hours, were assessed by both quantification of cellular ATP levels via Cell Titer Glo (Promega) according to the manufacturer's protocol and by microscopy imaging. […]
(§4) An automated image analysis pipeline was established using custom-made scripts in the open-source, statistical programming language R, and functions of the BioConductor package EBImage. The goal was to quantify the number of viable nuclei (cells) per well as an approximation for cell viability. […]

[3] = tested on: WM-266-4 cells expressing truncated p61-BRAFV600E; assay: as above; assay type: cell-based; settings: Homo sapiens, WM-266-4 p61 BRafV600E, single agent
Protocol: as §1, §2, §3, §4

[4] = tested on: WM-266-4 cells expressing mutant NRASQ61K; assay: as above; assay type: cell-based; settings: Homo sapiens, WM-266-4 NRASQ61K, single agent
Protocol: as §1, §2, §3, §4

[5] = tested on: WM-266-4 cells expressing mutant MEK1C121S; assay: ATP-based CTG (Cell Titer Glo) cell viability assay, 72 h; settings: Homo sapiens, WM-266-4 MEK1C121S, single agent
Protocol: (§5) Compound stocks are prepared in DMSO at a final concentration of 10 mM. Working stocks are serially diluted in the appropriate cell culture medium in 3-fold increments to achieve final assay concentrations ranging from 2.7 μM to 1.2 nM.
as §2
(§6) For screening, cells were seeded in 80 ul of medium in 384-well plates (Thermo Scientific, cat#4332) at 500 (A-375) or 750 (WM-266-4) cell densities per well using a MultiDrop Combi (Thermo-Fisher) with an 8-channel standard cassette. To promote an even distribution of cells across the entire well, cells were briefly centrifuged at 1000 RPM and incubated at room temperature 30 minutes. All plates were incubated at 37° C., 5% CO2 for 24 h prior to compound addition. Compound stock was freshly prepared in the appropriate culture medium, and added using a PAA robot equipped with a 200n1 pin tool. In a minimum of three replicate wells, single agent and combination effects after 72 hours, were assessed by both quantification of cellular ATP levels via Cell Titer Glo (Promega) according to the manufacturer's protocol and by microscopy imaging. For imaging, cells were fixed to the plates and permeabilized with a solution of 10% PFA, 0.3% TX-100 in PBS via a WellMate dispenser with controlled dispensing speeds. Cell nuclei were stained with Hoechst 33342 (H3570, Invitrogen), and all necessary washing steps were performed by a BioTek washer.
(§7) Data comprised triplicate measurements for each treatment (compound) condition, 42 replicates of DMSO-treated wells, and duplicates of Staurosporin-treated wells. The data was normalized to the median of the DMSO measurements and summarized by calculating the median of the triplicates. Data was imported into Chalice to calculate compound synergies.

WM-266-4 cells = assay: as above; settings: Homo sapiens, WM-266-4 parent, single agent
Protocol: as §5, §2, §6, §7

[6] = tested on: A-375 cells expressing mutant NRASQ61K; assay: as above; settings: Homo sapiens, A-375 NRASQ61K, single agent
Protocol: as §5, §2, §6, §7

A-375 cells = assay: as above; settings: Homo sapiens, A-375 parent, single agent
Protocol: as §5, §2, §6, §7

[7] = tested on: A-375 cells expressing mutant MEK1P124L; assay: as above; settings: Homo sapiens, A-375 MEK1P124L, single agent
Protocol: as §5, §2, §6, §7

Compound: COC(=O)N[C@@H](C)CNc1nccc(-c2cn(C(C)C)nc2-c2cc(Cl)cc(NS(C)(=O)=O)c2F)n1 [Compound of Formula (I)]
- observed adverse events ([1]; in clinic, tested at up to 700 mg QD): reversible and manageable
- RP2D (recommended phase II dose) ([1]; single agent, patients): 450 mg QD
- IC50 [2]: 0.849 µM
- IC50 [3]: 0.933 µM
- IC50 [4]: 0.868 µM
- IC50 [5]: 0.035 µM
- IC50 (WM-266-4 cells): 0.002 µM
- IC50 [6]: 0.134 µM
- IC50 (A-375 cells): 0.004 µM
- IC50 [7]: 0.333 µM
